ChEMBL document CHEMBL4811224, “Antibacterial Prenylated p-Hydroxybenzoic Acid Derivatives from Oberonia myosurus and Identification of Putative Prenyltransferases” (2021)
≈ marks a conversion by molar mass, not a printed value.

Test system: Staphylococcus aureus
Assay: Antibacterial activity against Staphylococcus aureus subsp. aureus ATCC 29213 assessed as bacterial growth inhibition incubated for 24 hrs by Reed-Muench method
Type: functional

Row | SMILES | MIC50 [µg/mL]
1 | CC(C)=CCc1cc(C(=O)O)cc2c1OC(C)(C)C=C2 | 15 (≈ 55.1 µM)
2 | CC(C)=CCc1cc(C(=O)O[C@@H]2CC(C(=O)O)=C[C@@H](O)[C@H]2O)cc2c1OC(C)(C)C=C2 | 56 (≈ 131 µM)
3 | CC(C)=CCc1cc(C(=O)O[C@H](C)[C@@](C)(O)C(=O)O)cc(CC=C(C)C)c1O | 23 (≈ 58.9 µM)
4 | C=C(C)C(O)Cc1cc(C(=O)O)cc2c1OC(C)(C)C=C2 (stereo not drawn) | 81 (≈ 281 µM)
5 | CC(C)=CCc1cc(C(=O)O)cc2c1OC(C)(C)CC2=O | 93 (≈ 323 µM)
6 | C=C(C)C(O)Cc1cc(C(=O)O)cc(CC=C(C)C)c1O (stereo not drawn) | 89 (≈ 307 µM)
7 | CC(C)=CCc1cc(C(=O)O)cc(CC=C(C)C)c1O | 7.6 (≈ 27.7 µM)
8 | CC1(C)S[C@@H]2[C@H](NC(=O)Cc3ccccc3)C(=O)N2[C@H]1C(=O)[O-].[Na+] [PENICILLIN G SODIUM] | 0.53
